Where a name gives a salt, the structure may show the parent alone.
Assays:
[1] = molecular target: T1, human dihydrofolate reductase (Homo sapiens, UniProt P00374); test: DHFR I50, human enzyme; format: biochemical
T1 sequence (P00374 1-187): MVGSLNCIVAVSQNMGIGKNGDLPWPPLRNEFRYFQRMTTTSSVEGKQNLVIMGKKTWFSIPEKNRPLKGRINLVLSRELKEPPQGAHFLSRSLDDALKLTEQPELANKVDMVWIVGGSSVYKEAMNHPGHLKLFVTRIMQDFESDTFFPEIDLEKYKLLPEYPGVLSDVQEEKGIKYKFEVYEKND

DHFR = molecular target: T2, DHFR (Candida albicans, UniProt P22906); test: biochemical; conditions: C.albicans enzyme; read-out: DHFR I50 C.albicans
T2 sequence (P22906 1-192): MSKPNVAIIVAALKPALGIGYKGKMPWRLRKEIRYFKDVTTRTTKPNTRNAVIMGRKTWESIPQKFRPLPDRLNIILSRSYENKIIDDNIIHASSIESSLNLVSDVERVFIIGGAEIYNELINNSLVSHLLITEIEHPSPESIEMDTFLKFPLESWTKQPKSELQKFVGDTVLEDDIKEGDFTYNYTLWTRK

[2] = test system: L cells (derived from connective tissue); test: Cytotoxicity in cell culture (inhibition of cell growth); format: cell-based; conditions: mouse line, continuous exposure 72 hours
Description: (§1) The cytotoxic effects of various compounds were measured by the inhibition of mammalian cell growth in culture. Cell lines were grown in RPMI-1640 media prepared without folic acid but supplemented with 10nM calcium leucovorin, 25mM HEPES and 10% dialysed fetal bovine serum. In the case of human medulloblastoma cells (Daoy), the media (containing undialysed 10% fetal bovine serum) was pretreated with the enzyme thymidine phosphorylase (20 units/ml for 30 mins. at 37°C) to remove endogenous thymidine. Cells were seeded into 96 well microtiter plates (at densities determined to give log phase growth of control cells at the end of the assay) in 150µl of medium and grown at 37°C in a humidified incubator at 6% CO₂ for 24 hours. Compounds were prepared in media at four times the highest concentration to be tested; two-fold serial dilutions were made, and compounds were added to cells. […] The EC₅₀, defined as the concentration of compound required to reduce growth to 50% of the control, was determined from a plot of per cent inhibition versus log concentration. Cells were continuously exposed to inhibitor for 72 hours.

[3] = test system: HCT8 colon adenocarcinoma; test: as above; format: cell-based; conditions: HCT-8, human line, continuous exposure 72 hours
Description: as §1

[4] = test system: KB3-1 epidermoid carcinoma; test: as above; format: cell-based; conditions: KB 3-1, human line, continuous exposure 72 hours
Description: as §1

CCRF-CEM T cells = test: as above; format: cell-based; conditions: human line, continuous exposure 72 hours
Description: as §1

S180 sarcoma = test: as above; format: cell-based; conditions: S-180, mouse line, continuous exposure 72 hours
Description: as §1

D98 bone marrow cells = test: as above; format: cell-based; conditions: human line, continuous exposure 72 hours
Description: as §1

Daoy medulloblastoma = test: as above; format: cell-based; conditions: human line, continuous exposure 72 hours, medium pretreated with thymidine phosphorylase
Description: as §1

[5] = test system: Ehrlich ascites carcinoma; test: as above; format: cell-based; conditions: mouse line, continuous exposure 72 hours
Description: as §1

GC3C1 colon carcinoma = test: as above; format: cell-based; conditions: GC3/C1, human line, continuous exposure 72 hours
Description: as §1

P388 lymphoid neoplasm = test: as above; format: cell-based; conditions: mouse line, continuous exposure 72 hours
Description: as §1

[6] = test system: MCF7 breast adenocarcinoma; test: as above; format: cell-based; conditions: human line, continuous exposure 72 hours
Description: as §1

[7] = Brain distribution in mice (brain and plasma concentrations by HPLC); format: in vivo; conditions: female CD1 mice, 30 or 40 minutes after dose; Compound 1 17mg/kg i.v., Compound 2 10mg/kg i.v., piritrexim 200mg/kg i.p., trimetrexate 100mg/kg i.p.; average of several experiments
Description: Female CD1 mice were dosed with Compound 1 (17mg/kg, i.v.), Compound 2 (10mg/kg, i.v.), piritrexim (200mg/kg,i.p.) or trimetrexate (100mg/kg, i.p.). Brain and plasma samples were collected 30 or 40 minutes later. The drugs were extracted from the samples, and their concentrations were determined using HPLC. The numbers represent the average of several experiments.

| SMILES | IC50 [1] [nM] | IC50 (DHFR) [nM] | also measured |
| --- | --- | --- | --- |
| CCCC(CC)n1ccc2c3c(N)nc(N)nc3ccc21 (stereo not drawn) [Compound 3, 1,3-Diamino-7-(1-ethylbutyl)-7H-pyrrolo[3,2-f]quinazoline] | < 1 | 2 | – |
| CCCC(CCC)n1ccc2c3c(N)nc(N)nc3ccc21 [Compound 4, 1,3-Diamino-7-(1-propylbutyl)-7H-pyrrolo[3,2-f]quinazoline hydrochloride] | < 2 | < 1 | – |
| CCc1cc2c3c(N)nc(N)nc3ccc2n1C(CC)CC [Compound 6, 1,3-Diamino-8-ethyl-7-(1-ethylpropyl)-7H-pyrrolo(3,2-f)quinazoline] | < 1 | < 1 | – |
| CCC(C)n1ccc2c3c(N)nc(N)nc3ccc21 (stereo not drawn) [Compound 7a, 1,3-diamino-7-sec-butyl-7H-pyrrolo(3,2-f)quinazoline] | 18 | 10 | – |
| CCCC(C)n1ccc2c3c(N)nc(N)nc3ccc21 (stereo not drawn) [Compound 7b, 1,3-diamino-7-(1-methylbutyl)-7H-pyrrolo(3,2-f)quinazoline] | 11 | 7 | – |
| CCC(C(C)C)n1ccc2c3c(N)nc(N)nc3ccc21 (stereo not drawn) [Compound 7c, 1,3-diamino-7-(1-ethyl-2-methylpropyl)-7H-pyrrolo(3,2-f)quinazoline] | < 2 | 3 | – |
| CC(C)n1ccc2c3c(N)nc(N)nc3ccc21 [Compound 7d, 1,3-diamino-7-isopropyl-7H-pyrrolo(3,2-f)quinazoline] | 48 | 35 | – |
| COCC(COC)n1ccc2c3c(N)nc(N)nc3ccc21 [Compound 7e, 1,3-diamino-7-(2-methoxy-1-methoxymethyl)ethyl-7H-pyrrolo(3,2-f)quinazoline] | 8.4 | 8.9 | – |
| Nc1nc(N)c2c(ccc3c2ccn3C2CCCCC2)n1 [Compound 7f, 1,3-diamino-7-cyclohexyl-7H-pyrrolo(3,2-f)quinazoline] | 44 | 3 | – |
| Nc1nc(N)c2c(ccc3c2ccn3C2C=CCCC2)n1 (stereo not drawn) [Compound 7g, 1,3-diamino-7-(2-cyclohexen-1-yl)-7H-pyrrolo(3,2-f)quinazoline] | 33 | 6 | – |
| Cc1cc2c3c(N)nc(N)nc3ccc2n1C(C)C [Compound 8a, 1,3-diamino-7-isopropyl-8-methyl-7H-pyrrolo(3,2-f)quinazoline] | 9 | 4 | – |
| CCC(CC)n1c(COC)cc2c3c(N)nc(N)nc3ccc21 [Compound 9a, 1,3-diamino-7-(1-ethylpropyl)-8-(methoxymethyl)-7H-pyrrolo (3,2-f)quinazoline] | 3.3 | 4.1 | – |
| CCCc1cc2c3c(N)nc(N)nc3ccc2n1C(CC)CC [Compound 9b, 1,3-diamino-7-(1-ethylpropyl)-8-propyl-7H-pyrrolo(3,2-f)quinazoline] | 1.3 | 1.8 | – |
| CC(C)n1c(C(C)(C)C)cc2c3c(N)nc(N)nc3ccc21 [Compound 9c, 1,3-diamino-8-tert-butyl-7-isopropyl-7H-pyrrolo(3,2-f)quinazoline] | < 1 | < 1 | – |
| CCC(CC)n1c(C(C)C)cc2c3c(N)nc(N)nc3ccc21 [Compound 9d, 1,3-diamino-7-(1-ethylpropyl)-8-isopropyl-7H-pyrrolo(3,2-f)quinazoline] | < 1 | < 1 | – |
| CCc1cc2c3c(N)nc(N)nc3ccc2n1C(C)CC (stereo not drawn) [Compound 9e, 1,3-diamino-8-ethyl-7-sec-butyl-7H-pyrrolo(3,2-f)quinazoline] | < 1 | < 1 | – |
| CCC(CC)n1c(CCCCl)cc2c3c(N)nc(N)nc3ccc21 [Compound 9f, 1,3-diamino-8-(3-chloropropyl)-7-(1-ethylpropyl)-7H-pyrrolo(3,2-f)quinazoline] | < 1 | 4.3 | – |
| CCCCc1cc2c3c(N)nc(N)nc3ccc2n1C(C)(C)C [Compound 10a, 1,3-diamino-8-butyl-7-tert-butyl-7H-pyrrolo(3,2-f)quinazoline] | – | 7 | – |
| CCC(C)(C)n1c(C)cc2c3c(N)nc(N)nc3ccc21 [Compound 10b, 1,3-diamino-7-(1,1-dimethylpropyl)-8-methyl-7H-pyrrolo(3,2-f)quinazoline] | < 1 | < 1 | – |
| CN(Cc1cnc2nc(N)nc(N)c2n1)c1ccc(C(=O)N[C@@H](CCC(=O)O)C(=O)O)cc1 [Methotrexate, N-[4[[(2,4-diamino-6-pteridinyl)methyl]methylamino]benzoyl]-L-glutamic acid, reference compound] | – | – | EC50 [2]: 75 nM; EC50 [3]: 7.3 nM; EC50 [4]: 20 nM; EC50 (CCRF-CEM T cells): 1.9 nM; EC50 (S180 sarcoma): 18.7 nM; EC50 (D98 bone marrow cells): 47 nM; EC50 (Daoy medulloblastoma): 21 nM; EC50 [5]: 8.5 nM; EC50 (GC3C1 colon carcinoma): 12 nM; EC50 (P388 lymphoid neoplasm): 2.7 nM; EC50 [6]: 12 nM |
| COc1ccc(OC)c(Cc2cnc3nc(N)nc(N)c3c2C)c1 [Piritrexim, 2,4-diamino-6(2,5-dimethoxybenzyl)5-methylpyrido(2,3-d)pyrimidine, reference compound] | – | – | Tissue concentration brain [7]: 2.3 µg/g; Tissue concentration plasma [7]: 4.2 µg/mL; EC50 [2]: 5.2 nM; EC50 [3]: 1.3 nM; EC50 [4]: 340 nM; EC50 (CCRF-CEM T cells): 15 nM; EC50 (S180 sarcoma): 10 nM; EC50 (D98 bone marrow cells): 195 nM; EC50 (Daoy medulloblastoma): 48 nM; EC50 [5]: 4 nM; EC50 (GC3C1 colon carcinoma): 7.6 nM; EC50 (P388 lymphoid neoplasm): 23 nM; EC50 [6]: 175 nM |
| COc1cc(NCc2ccc3nc(N)nc(N)c3c2C)cc(OC)c1OC [Trimetrexate, 5-methyl-6-[[(3,4,5-trimethoxyphenyl)amino]methyl]-2,4-quinazolinediamine, reference compound] | – | – | Tissue concentration brain [7]: 1.4 µg/g; Tissue concentration plasma [7]: 13 µg/mL |
